Reference: patent US20260273076A1, “PHARMACEUTICAL COMPOSITIONS AND METHOD OF TREATMENT OF METASTATIC AND OTHER CANCERS” (Favorite Pharmaceuticals, priority 2023, published 2026)
Where two headings read alike, the source gives them in different places.

Columns and labels:
[1] = tested on: PDX derived cell line models (pancreatic cancer patients) in co-culture with human dermal fibroblasts; assay: Cypre 3D Oncology in vitro patient-derived xenograft (PDX) Panel (Example 11); type: cell-based; details: treated four days, 5 patients
Experimental: In this example, a Cypre PDX assay was carried out in 5 different pancreatic cancer patients using 5 test compounds. […] The endpoint from this assay was tumor size and DRAQ7 staining.
PDX Tumor cells were expanded in 2D cell culture and then grown in 3D hydrogels, co-embedded with human dermal fibroblasts (HDF). […] After, 3D assays were stained with Hoechst and DRAQ7, fixed, and analyzed using a high content imager and proprietary image analysis software.

[2] = tested on: HCT-116 spheroids; assay: HCT-116 spheroid viability / mitochondrial staining, high-content imaging (Example 1); type: cell-based; details: 72 hours
Experimental: Monolaurin was also similarly compared as a non-pegylated Lauric acid control.
HCT-116 cells were cultured according to ATCC guidelines and spheroids containing the cells were incubated in plate maps. […] After 72 hours of incubation, the images were taken at 10× with a 25-step z-stack in […] on a Molecular Devices imager.
On the day of dosing, C12 (C12=C12-Ether-PEG-1000), C-18 (C18=C18-amide-PEG-1000) and monolaurin were reconstituted in DMSO to make stock solutions of 60 mM. Lauric Acid and Polyethylene Glycol were also reconstituted in DMSO to make stock solutions of 120 mM. C-12, C-18 and monolaurin stock solutions were then serially diluted at half-log steps in DMSO and then diluted 100× in maintenance media. Lauric Acid and monomethoxy polyethylene glycol MW 1000 (PEG) were serially diluted in DMSO and then diluted 200× in maintenance media. Dosing done according to manufacturer's protocol.
DMSO concentrations were kept consistent across all wells at 0.5%. Following dosing, Plate 1 & 2 were incubated in a 37° C., 5% CO2 incubator for 72 hours. Plate 1 was removed from incubation between 60 and 180 min timepoints for imaging. Well A05 in Plate 1 was imaged in bright field at 10× while incubated in the imager at 37° C. Images were taken at 5-minute intervals for 120 mins. Following imaging, Plate 1 was immediately placed back into 37° C., 5% C02 incubator. […]

[3] = tested on: HCT-116 cells; details: HCT-116 2-D, 72 hours
Experimental: Cells were incubated for 72 hours in a 37° C./5% CO2 incubator. […] At the conclusion of the 72-hour timepoint, cells were labeled with 6 μL/mL MitoTracker Deep Red and 1:250 Viability Dye.
Following labeling, cells were fixed in 10% neutral buffer formalin and permeabilized with 0.2% Triton X-100 in 1×PBS. Cells were then labeled with 1:500 Hoechst 33342 Ready Flow™ Reagent And 5 μL/mL Alexa Fluor 488 phalloidin.
Cells were then imaged at 20× widefield using a Molecular Devices ImageXpress Micro Confocal High-Content imaging platform. The scan laser/dichromic settings were tuned for 405, 488, 647, and 730 nm excitation wavelengths. Images were acquired and saved as 16-bit 2048×2048 TIF files for further processing. A grid of the sites at well centers was acquired during image capture.
The images were then analyzed using nuclear, phalloidin, and MitoTracker Channels. The number of cells was determined for each. Viable and non-viable cells were determined using colocalization of the nuclear channel and the viability dye images after thresholding. Phalloidin and MitoTracker cell object intensity distributions were quantified using cellular objects positive for phalloidin and MitoTracker. Statistical analysis was performed using GraphPad Prism statistical software. Nonlinear regression was used as a curve fitting tool to determine compound efficacy.

[4] = tested on: human pancreatic cancer (BXPC3) cells
Experimental: In this example, human pancreatic cancer (BXPC3) cells were grown on microscope slides for 24 hours prior to administration of test articles. […] Imaging was at 10× with photographs taken once every five minutes.
The timeline proceeds from left to right.

[5] = tested on: BXPC3 cells
From the text: Molecular crowding occurs when high concentrations of macromolecules reduce the volume of solvent available for other molecules in the solution, effecting the properties of cellular water. […] An increase in dry mass on addition of drug to the cells reflects uptake of the conjugate into the intracellular space. […] The method has been used to evaluate a dose response relationship and the characteristic response patterns of specific cell types to selected polyethylene glycol fatty acid conjugated structures.

[6] = tested on: human pancreatic cancer (BX PC3) cells; details: 200 micromolar, 24 hours
[7] = tested on: A549, HL-60, Raji B, Panc-1, and PC3 cancer cell lines; details: 4-5 h period, 5 cell lines

## CCCCCCCCCCCCCCCCCCNc1c(NCCOCCOCCOCCOCCOCCOCCOCCOCCOCCOCCOCCOCCOCCOCCOCCOCCOCCOCCOCCOCCOCCOC)c(=O)c1=O [C18-Squaramide-PEG-1000, 3-((2,5,8,11,14,17,20,23,26,29,32,35,38,41,44,47,50,53,56,59,62,65-docosaoxa-heptahexacontan-67-yl)amino)-4-(octadecylamino)cyclobut-3-ene-1,2-dione]
[1]
  Tumor Total area: activity in comparison: similarity in activity

## CCCCCCCCCCCC(=O)O [Lauric Acid]
[2]
  effect on cell viability, treatment vs control: no difference between treatment and control

## polyethylene glycol octadecyl ether [C18-Ether-PEG-1000]
[3]
  MitoTracker intensities: modest effect
  concentration at which total cell death / death of all the cells occurred: 50 µM
  effects on cell viability: strong effects on cell viability
[4]; 100 μM and 200 μM, 24 hours of incubation
  effect on cells: drastic with both concentrations
[4]; 100 μM vs 200 μM, 24 hours
  cell kill at lower vs higher concentration: less cell kill at the lower concentration
[4]; 200 μM, 1-hour period
  effect on a cluster of cells: membrane disruption and cell death
[4]; 200 uM, single cell
  time to cell fragmentation after dosing: ≤ 60 min
[5]
  time post dosing to membrane disruption leading to cell death: ≤ 40 min
[5]; first study (FIG. 17A)
  drop of cell mass: 3 fold
  time post dosing of phase drop in dry mass: 30 to 50 min
[5]; repeat study (FIG. 17D)
  cell mass decrease, factor: 2
  time of major phase drop after the addition of the drug: about 25 minutes
[6]
  number of cells in clusters vs no drug control: significantly reduced
[7]; 50 μM
  cell death: 80%
[7]; 100 μM
  cell death: 100%

## polyethylene glycol octadecyl ether [C18-Ether-PEG-5000]
[3]
  MitoTracker intensities: no effects
  concentration at which total cell death / death of all the cells occurred: 100 µM
[4]; 300 μM, 24 hours of incubation
  cell destruction vs no drug control: completely destroyed
[4]; 300 μM, after 19 hours
  effect on existing cell mass / clusters: dissociation of the accumulated mass and loss of cellular motility and death
[4]; BXPC3, 300 μM (Example 3)
  kill kinetic: 19 h
[1]
  DRAQ7 cell death assay: activity in comparison with standard of care: equal to standard of care
  Tumor Total area: activity in comparison: equal to standard of care
